# pKi: −log10 of the molar value.
# Tests used:
# Prothrombin = Prothrombin (Homo sapiens, UniProt P00734); assay: Inhibitory potency against thrombin
# Tryptase beta-1 = Tryptase beta-1 (Homo sapiens, UniProt Q15661); assay: Inhibitory potency against tryptase
# Plasminogen = Plasminogen (Homo sapiens, UniProt P00747); assay: Inhibitory potency against plasmin
# Serine protease 1 = Serine protease 1 (Homo sapiens, UniProt P07477); assay: Inhibitory potency against trypsin
# Chain of Serine protease 1 (P07477 whole entry): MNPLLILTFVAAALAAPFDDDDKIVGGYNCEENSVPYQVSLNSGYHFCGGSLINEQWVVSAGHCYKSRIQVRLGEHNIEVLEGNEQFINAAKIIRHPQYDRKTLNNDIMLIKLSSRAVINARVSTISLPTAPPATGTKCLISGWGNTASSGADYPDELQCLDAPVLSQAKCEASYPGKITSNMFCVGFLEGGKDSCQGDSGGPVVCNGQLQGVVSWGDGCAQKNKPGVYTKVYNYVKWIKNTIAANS
# Chain of Tryptase beta-1 (Q15661 whole entry): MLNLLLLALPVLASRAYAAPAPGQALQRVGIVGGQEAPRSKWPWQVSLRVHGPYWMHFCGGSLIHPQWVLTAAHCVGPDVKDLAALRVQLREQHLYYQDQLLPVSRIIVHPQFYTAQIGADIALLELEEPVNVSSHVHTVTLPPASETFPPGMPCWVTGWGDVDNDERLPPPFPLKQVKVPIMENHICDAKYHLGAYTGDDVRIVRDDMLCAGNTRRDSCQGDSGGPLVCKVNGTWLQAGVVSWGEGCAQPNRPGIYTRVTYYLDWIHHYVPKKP
# Chain of Plasminogen (P00747 97-580 limits assumed): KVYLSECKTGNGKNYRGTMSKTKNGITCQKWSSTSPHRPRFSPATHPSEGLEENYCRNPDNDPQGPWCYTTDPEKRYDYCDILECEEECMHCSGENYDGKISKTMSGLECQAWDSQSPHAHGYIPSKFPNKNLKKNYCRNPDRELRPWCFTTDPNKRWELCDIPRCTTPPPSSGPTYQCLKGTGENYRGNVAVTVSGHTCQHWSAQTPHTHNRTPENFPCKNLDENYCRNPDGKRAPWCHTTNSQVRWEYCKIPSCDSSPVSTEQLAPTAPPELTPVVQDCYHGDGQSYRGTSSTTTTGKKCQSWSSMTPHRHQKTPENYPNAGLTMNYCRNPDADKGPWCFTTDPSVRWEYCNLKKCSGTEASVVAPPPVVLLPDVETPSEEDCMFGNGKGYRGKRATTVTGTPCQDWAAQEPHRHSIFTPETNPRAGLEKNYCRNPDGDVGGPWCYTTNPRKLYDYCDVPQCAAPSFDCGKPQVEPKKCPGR
# Chain of Plasminogen (P00747 581-810 limits assumed): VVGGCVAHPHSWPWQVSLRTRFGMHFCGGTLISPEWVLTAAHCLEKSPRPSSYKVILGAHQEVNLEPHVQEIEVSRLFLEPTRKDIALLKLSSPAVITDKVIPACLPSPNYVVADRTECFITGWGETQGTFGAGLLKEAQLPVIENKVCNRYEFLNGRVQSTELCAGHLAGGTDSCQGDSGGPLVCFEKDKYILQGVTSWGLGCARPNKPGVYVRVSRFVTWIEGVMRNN
Compound,pKi (Prothrombin),pKi (Tryptase beta-1),pKi (Plasminogen),pKi (Serine protease 1)
NCc1ccc(CNC(=O)CCCC(=O)NCc2ccc(CNC(=O)CCCC(=O)NCc3ccc(CN)cc3)cc2)cc1,< 3.00,8.05,< 3.00,3.56
N=C(N)Nc1ccc(CNC(=O)CCC(=O)NCc2ccc(CNC(=O)CCC(=O)NCc3ccc(NC(=N)N)cc3)cc2)cc1,< 3.00,7.40,< 3.00,3.84
C[C@@H](NC(=O)OCc1ccc(COC(=O)N[C@H](C)C(=O)NCc2ccc(CN)cc2)cc1)C(=O)NCc1ccc(CN)cc1,< 3.00,7.51,< 3.00,4.42
NCc1ccc(CNC(=O)CNC(=O)OCc2ccc(COC(=O)NCC(=O)NCc3ccc(CN)cc3)cc2)cc1,< 3.00,9.22,< 3.00,
N=C(N)Nc1ccc(CNC(=O)CCNC(=O)OCc2ccc(COC(=O)NCCC(=O)NCc3ccc(NC(=N)N)cc3)cc2)cc1,< 3.00,7.05,< 3.00,4.14
O=C(NCc1ccccc1)N1CCN(C(=O)O[C@H]2CCC[C@@H](OC(=O)N3CCN(C(=O)NCc4ccccc4)CC3)CCC2)CC1,4.85,4.00,< 3.00,4.36
N=C(N)Nc1ccc(CNC(=O)CC(=O)NCc2ccc(CNC(=O)CC(=O)NCc3ccc(NC(=N)N)cc3)cc2)cc1,< 3.00,6.17,< 3.00,4.14
N=C(N)Nc1ccc(CNC(=O)N2CCN(C(=O)O[C@H]3CCC[C@@H](OC(=O)N4CCN(C(=O)NCc5ccc(NC(=N)N)cc5)CC4)CCC3)CC2)cc1,3.36,,3.31,4.41
NC(N)=Nc1ccc(CNC(=O)NCC(=O)O[C@H]2CCC[C@@H](OC(=O)CNC(=O)NCc3ccc(N=C(N)N)cc3)CCC2)cc1,< 3.00,8.70,< 3.00,4.11
NCc1ccc(CNC(=O)CCC(=O)NCc2ccc(CNC(=O)CCC(=O)NCc3ccc(CN)cc3)cc2)cc1,< 3.00,8.52,3.11,3.63
NCc1ccc(CNC(=O)CC(=O)NCc2ccc(CNC(=O)CC(=O)NCc3ccc(CN)cc3)cc2)cc1,< 3.00,6.82,< 3.00,3.50
NC(N)=Nc1ccc(CNC(=O)CNC(=O)OCc2ccc(COC(=O)NCC(=O)NCc3ccc(N=C(N)N)cc3)cc2)cc1,< 3.00,8.00,< 3.00,4.25
CN(Cc1ccc(CN)cc1)C(=O)CCC(=O)NCc1ccc(CNC(=O)CCC(=O)N(C)Cc2ccc(CN)cc2)cc1,< 3.00,5.70,< 3.00,< 3.00
N=C(N)Nc1ccc(CNC(=O)CCCC(=O)NCc2ccc(CNC(=O)CCCC(=O)NCc3ccc(NC(=N)N)cc3)cc2)cc1,3.31,7.00,< 3.00,4.15
N=C(N)Nc1ccc(CNC(=O)N2CCN(C(=O)O[C@H]3CCC[C@@H](OC(=O)N4CCN(C(=O)NCc5ccccc5)CC4)CCC3)CC2)cc1,< 3.00,4.82,< 3.00,3.74
CN(Cc1ccc(CN(C)C(=O)CCC(=O)NCc2ccc(CN)cc2)cc1)C(=O)CCC(=O)NCc1ccc(CN)cc1,< 3.00,8.30,3.67,3.79
C[C@H](NC(=O)OCc1ccc(COC(=O)N[C@@H](C)C(=O)NCc2ccc(CN)cc2)cc1)C(=O)NCc1ccc(CN)cc1,< 3.00,6.44,4.08,3.56
CN(CC(=O)NCc1ccc(CN)cc1)C(=O)OCc1ccc(COC(=O)N(C)CC(=O)NCc2ccc(CN)cc2)cc1,< 3.00,8.30,< 3.64,4.30

# From ChEMBL document CHEMBL1132783, “Dibasic inhibitors of human mast cell tryptase. Part 1: synthesis and optimization of a novel class of inhibitors” (Bioorg Med Chem Lett, 2000)
